Measurements: patent US9328112B2, “Tetracyclic CDK9 kinase inhibitors” (AbbVie Inc., priority 2014, dated 2016)
pIC50: −log10 of the molar value.

Assays:
CDK9/Cyclin T1 = CDK9/Cyclin T1 (Homo sapiens (Human), UniProt P50750); test: CDK9 enzyme assay (LANCE ULight TR-FRET kinase assay); type: biochemical; conditions: 1000 μM ATP, 100 nM ULight MBP, kinase reaction 1 hour
In short: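 TR-FRET readout (ex 320 nm; em 615/665 nm) after 1 h detection with 0.5 nM europium anti-phospho-MBP antibody in 20 mM EDTA stop buffer. Preceding 1 h kinase step: CDK9/Cyclin T1, ULight-MBP substrate at 100 nM, ATP at 1000 μM, compound pre-diluted in DMSO then buffer.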

H929 cells = test: Cell viability assay (Cell TiterGlo); type: cell-based; conditions: Homo sapiens, NCI-H929, 24 hours at 37° C., Cell TiterGlo luminescence
Method: The cell viability assay was performed using H929 cells. Cells were seeded in 96-well plates at 10,000 cells/well and, after overnight incubation, treated with compounds in a dose response of 3-fold dilutions from 10 μM to 0.005 μM ([…], 0.1% final DMSO concentration). After 24 hours at 37° C., cell viability was measured using Cell TiterGlo reagent (Promega) with a luminescence reader.

Sequence of CDK9/Cyclin T1 (P50750 whole entry): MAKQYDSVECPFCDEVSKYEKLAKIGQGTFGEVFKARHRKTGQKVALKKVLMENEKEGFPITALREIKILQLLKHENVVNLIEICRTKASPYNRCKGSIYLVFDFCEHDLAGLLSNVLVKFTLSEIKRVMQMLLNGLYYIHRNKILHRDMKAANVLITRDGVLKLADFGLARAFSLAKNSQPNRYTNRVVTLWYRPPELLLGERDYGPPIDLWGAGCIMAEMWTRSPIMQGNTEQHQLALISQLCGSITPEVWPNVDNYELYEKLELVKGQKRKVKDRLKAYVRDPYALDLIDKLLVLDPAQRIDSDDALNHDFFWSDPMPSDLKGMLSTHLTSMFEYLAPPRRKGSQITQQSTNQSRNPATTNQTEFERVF
Sequence of CDK9/Cyclin T1 (O60563 whole entry partner): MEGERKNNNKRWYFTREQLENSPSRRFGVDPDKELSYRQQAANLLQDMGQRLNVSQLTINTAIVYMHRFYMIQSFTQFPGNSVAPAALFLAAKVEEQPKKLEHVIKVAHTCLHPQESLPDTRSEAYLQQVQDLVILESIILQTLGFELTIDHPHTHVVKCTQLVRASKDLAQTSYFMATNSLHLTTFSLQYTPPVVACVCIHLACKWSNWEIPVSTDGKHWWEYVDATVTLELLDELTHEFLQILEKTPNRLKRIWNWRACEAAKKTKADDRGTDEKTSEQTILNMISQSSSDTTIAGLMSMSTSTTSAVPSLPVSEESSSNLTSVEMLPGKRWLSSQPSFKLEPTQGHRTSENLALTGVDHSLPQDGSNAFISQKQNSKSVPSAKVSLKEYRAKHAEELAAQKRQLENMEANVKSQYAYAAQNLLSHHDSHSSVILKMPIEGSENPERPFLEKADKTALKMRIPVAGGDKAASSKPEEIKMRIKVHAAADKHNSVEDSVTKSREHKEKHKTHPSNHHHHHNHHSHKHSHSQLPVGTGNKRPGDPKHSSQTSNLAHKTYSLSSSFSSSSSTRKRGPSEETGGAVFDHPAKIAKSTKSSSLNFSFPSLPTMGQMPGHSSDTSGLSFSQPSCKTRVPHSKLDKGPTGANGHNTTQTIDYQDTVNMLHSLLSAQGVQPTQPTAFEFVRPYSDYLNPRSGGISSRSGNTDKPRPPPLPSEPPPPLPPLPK

SMILES | pIC50 (CDK9/Cyclin T1) | pIC50 (H929 cells)
CN1Cc2c(C3=CC4CCCC(C3)N4S(C)(=O)=O)[nH]c3nccc(c23)-c2cc(F)ccc21 (centres unmarked) [Example 99, 10-fluoro-7-methyl-5-[9-(methylsulfonyl)-9-azabicyclo[3.3.1]non-2-en-3-yl]-6,7-dihydro-4H-3,4,7-triazadibenzo[cd,f]azulene] | 6.40 | 5.59
CNC(=O)N1C2C=C(c3[nH]c4nccc5c4c3CN(C)c3ccc(F)cc3-5)CC1CCC2 (centres unmarked) [Example 100, 3-(10-fluoro-7-methyl-6,7-dihydro-4H-3,4,7-triazadibenzo[cd,f]azulen-5-yl)-N-methyl-9-azabicyclo[3.3.1]non-2-ene-9-carboxamide] | 7.08 | 5.92
CN(C)C(=O)CN1C2C=C(c3[nH]c4nccc5c4c3CN(C)c3ccc(F)cc3-5)CC1CCC2 (centres unmarked) [Example 101, 2-[3-(10-fluoro-7-methyl-6,7-dihydro-4H-3,4,7-triazadibenzo[cd,f]azulen-5-yl)-9-azabicyclo[3.3.1]non-2-en-9-yl]-N,N-dimethylacetamide] | 6.96 | 7.04
CN1Cc2c(C3=CC4CCCC(C3)N4C(=O)CC#N)[nH]c3nccc(c23)-c2cc(F)ccc21 (centres unmarked) [Example 102, 3-[3-(10-fluoro-7-methyl-6,7-dihydro-4H-3,4,7-triazadibenzo[cd,f]azulen-5-yl)-9-azabicyclo[3.3.1]non-2-en-9-yl]-3-oxopropanenitrile] | 7.36 | 6.21
CN(CCO)C(=O)CN1C2C=C(c3[nH]c4nccc5c4c3CN(C)c3ccc(F)cc3-5)CC1CCC2 (centres unmarked) [Example 103, 2-[3-(10-fluoro-7-methyl-6,7-dihydro-4H-3,4,7-triazadibenzo[cd,f]azulen-5-yl)-9-azabicyclo[3.3.1]non-2-en-9-yl]-N-(2-hydroxyethyl)-N-methylacetamide] | 7.07 | 7.29
CN1Cc2c(C3=CC4CCCC(C3)N4CC(=O)N3CCC[C@H]3CO)[nH]c3nccc(c23)-c2cc(F)ccc21 (stereo partly drawn) [Example 104, 2-[3-(10-fluoro-7-methyl-6,7-dihydro-4H-3,4,7-triazadibenzo[cd,f]azulen-5-yl)-9-azabicyclo[3.3.1]non-2-en-9-yl]-1-[(2S)-2-(hydroxymethyl)pyrrolidin-1-yl]ethanone] | 7.24 | 7.19
CN1Cc2c(C3=CC4CCCC(C3)N4CC(=O)N3CC(O)C3)[nH]c3nccc(c23)-c2cc(F)ccc21 (centres unmarked) [Example 105, 2-[3-(10-fluoro-7-methyl-6,7-dihydro-4H-3,4,7-triazadibenzo[cd,f]azulen-5-yl)-9-azabicyclo[3.3.1]non-2-en-9-yl]-1-(3-hydroxyazetidin-1-yl)ethanone] | 7.01 | 6.72
CN1Cc2c(C3=CC4CCCC(C3)N4CC(=O)N(C)C3CC(O)C3)[nH]c3nccc(c23)-c2cc(F)ccc21 (centres unmarked) [Example 106, 2-[3-(10-fluoro-7-methyl-6,7-dihydro-4H-3,4,7-triazadibenzo[cd,f]azulen-5-yl)-9-azabicyclo[3.3.1]non-2-en-9-yl]-N-(3-hydroxycyclobutyl)-N-methylacetamide] | 7.18 | 6.89
CN(CC(O)CO)C(=O)CN1C2C=C(c3[nH]c4nccc5c4c3CN(C)c3ccc(F)cc3-5)CC1CCC2 (centres unmarked) [Example 107, N-(2,3-dihydroxypropyl)-2-[3-(10-fluoro-7-methyl-6,7-dihydro-4H-3,4,7-triazadibenzo[cd,f]azulen-5-yl)-9-azabicyclo[3.3.1]non-2-en-9-yl]-N-methylacetamide] | 6.96 | 6.96
CN1Cc2c(C3=CC4CCCC(C3)N4CC(=O)O)[nH]c3nccc(c23)-c2cc(F)ccc21 (centres unmarked) [Example 108, [3-(10-fluoro-7-methyl-6,7-dihydro-4H-3,4,7-triazadibenzo[cd,f]azulen-5-yl)-9-azabicyclo[3.3.1]non-2-en-9-yl]acetic acid] | 6.96 | 5.92
CN1Cc2c(C3=CCN(CC(=O)N(C)C4CC(O)C4)CC3)[nH]c3ncc(F)c(c23)-c2cc(F)ccc21 (centres unmarked) [Example 109, 2-[4-(1,10-difluoro-7-methyl-6,7-dihydro-4H-3,4,7-triazadibenzo[cd,f]azulen-5-yl)-3,6-dihydropyridin-1(2H)-yl]-N-(3-hydroxycyclobutyl)-N-methylacetamide] | 7.37 | 8.00
CN(CC(O)CO)C(=O)CN1CC=C(c2[nH]c3ncc(F)c4c3c2CN(C)c2ccc(F)cc2-4)CC1 (centres unmarked) [Example 110, 2-[4-(1,10-difluoro-7-methyl-6,7-dihydro-4H-3,4,7-triazadibenzo[cd,f]azulen-5-yl)-3,6-dihydropyridin-1(2H)-yl]-N-(2,3-dihydroxypropyl)-N-methylacetamide] | 7.35 | 7.85
CN1Cc2c(C3=CCN(CC(=O)O)CC3(C)C)[nH]c3nccc(c23)-c2cc(F)ccc21 [Example 111, [4-(10-fluoro-7-methyl-6,7-dihydro-4H-3,4,7-triazadibenzo[cd,f]azulen-5-yl)-3,3-dimethyl-3,6-dihydropyridin-1(2H)-yl]acetic acid] | 5.80 | 5.26
CN1Cc2c(C3=CCN(S(C)(=O)=O)CC3(C)C)[nH]c3nccc(c23)-c2cc(F)ccc21 [Example 113, 5-[3,3-dimethyl-1-(methylsulfonyl)-1,2,3,6-tetrahydropyridin-4-yl]-10-fluoro-7-methyl-6,7-dihydro-4H-3,4,7-triazadibenzo[cd,f]azulene] | 6.19 | 5.57
CN(C)C(=O)CN1CC=C(c2[nH]c3nccc4c3c2CN(C)c2ccc(F)cc2-4)C(C)(C)C1 [Example 114, 2-[4-(10-fluoro-7-methyl-6,7-dihydro-4H-3,4,7-triazadibenzo[cd,f]azulen-5-yl)-3,3-dimethyl-3,6-dihydropyridin-1(2H)-yl]-N,N-dimethylacetamide] | 6.06 | 5.47
CN1Cc2c(C3=CCN(CC(=O)N4CCC[C@H]4CO)CC3(C)C)[nH]c3nccc(c23)-c2cc(F)ccc21 [Example 115, 2-[4-(10-fluoro-7-methyl-6,7-dihydro-4H-3,4,7-triazadibenzo[cd,f]azulen-5-yl)-3,3-dimethyl-3,6-dihydropyridin-1(2H)-yl]-1-[(2S)-2-(hydroxymethyl)pyrrolidin-1-yl]ethanone] | 6.02 | 5.59
CN(CCO)C(=O)CN1CC=C(c2[nH]c3nccc4c3c2CN(C)c2ccc(F)cc2-4)C(C)(C)C1 [Example 116, 2-[4-(10-fluoro-7-methyl-6,7-dihydro-4H-3,4,7-triazadibenzo[cd,f]azulen-5-yl)-3,3-dimethyl-3,6-dihydropyridin-1(2H)-yl]-N-(2-hydroxyethyl)-N-methylacetamide] | 6.05 | 5.77
CN1Cc2c(C3=CCN(CC(=O)N4CC(O)C4)CC3(C)C)[nH]c3nccc(c23)-c2cc(F)ccc21 [Example 117, 2-[4-(10-fluoro-7-methyl-6,7-dihydro-4H-3,4,7-triazadibenzo[cd,f]azulen-5-yl)-3,3-dimethyl-3,6-dihydropyridin-1(2H)-yl]-1-(3-hydroxyazetidin-1-yl)ethanone] | 6.02 | 5.62
CN1Cc2c(C3=CCN(CC(=O)N(C)C4CC(O)C4)CC3(C)C)[nH]c3nccc(c23)-c2cc(F)ccc21 (centres unmarked) [Example 118, 2-[4-(10-fluoro-7-methyl-6,7-dihydro-4H-3,4,7-triazadibenzo[cd,f]azulen-5-yl)-3,3-dimethyl-3,6-dihydropyridin-1(2H)-yl]-N-(3-hydroxycyclobutyl)-N-methylacetamide] | 5.92 | 5.59
